The source of these data is US8999942B2, “Polyol modified aminoglycoside-lipid conjugates” (University of Manitoba, priority 2010, dated 2015).

Molecules are shown by their SMILES.

In general, MIC refers to the least concentration at which growth counts as inhibited. Lower therefore signals inhibition by little substance.

Assay [1] has as its system S. aureus, MRSA, S. epidermidis and MRSE. Put plainly: MIC, S. aureus, MRSA, S. epidermidis and MRSE. It is filed as cell-based, Staphylococcus aureus, Staphylococcus epidermidis. As for the experimental part:
(§1) All compounds were tested against American Type Culture Collection (ATCC) reference strains as well as clinical isolates from the Canadian Intensive Care Unit (CAN-ICU) study (Zhanel, et al., 2008). […] Antibacterial activity against Gram-positive and Gram-negative microorganisms was performed via broth macrodilution tests using CLSI methodology (Clinical and Laboratory Standards Institute, 2006). The minimum inhibitory concentration (MIC) in μg/mL of the aminoglycoside-derived amphiphilic polycarbamates and polyethers were determined using established methods (Clinical and Laboratory Standards Institute, 2006) and are shown in Tables 1 and 2, respectively.

Another assay relates to three strains of E. coli. Kind of assay: MIC, three strains of E. coli. It is filed as cell-based. As for the experimental part:
as §1

The subject of assay [2] is S. epidermidis ATCC 14990. Kind of assay: MIC, broth macrodilution (CLSI), S. epidermidis. It counts as cell-based, Staphylococcus epidermidis. The following applies: footnote ATCC 1490. The gist of the method:
(§2)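 Tested by broth macrodilution as laid out by CLSI; values are MICs in μg/mL.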

Assay [3] deals with E. coli (Amikacin MIC 32) CAN-ICU 63074. Kind of assay: MIC, broth macrodilution (CLSI), E. coli CAN-ICU 63074. It is filed as cell-based. The gist of the method:
as §2

The test system of assay [4] is methicillin-resistant Staphylococcus epidermidis (MRSE) CAN-ICU 61589. Put plainly: MIC, broth macrodilution (CLSI), MRSE. It counts as cell-based. The following applies: methicillin-resistant S. epidermidis, footnote (ATCC 14990). The essentials: as §2
Assay [5] has as its system E. coli (Gentamicin-resistant) CAN-ICU 61714. Put plainly: MIC, broth macrodilution (CLSI), gentamicin-resistant E. coli. The following applies: footnote ATCC 6174 (gentamicin resistant). It counts as cell-based. The gist of the method:
as §2

The test system of assay [6] is P. aeruginosa (Gent-R) CAN-ICU 62308. Put plainly: MIC, broth macrodilution (CLSI), P. aeruginosa CAN-ICU 62308. It is filed as cell-based, Pseudomonas aeruginosa. The essentials: as §2
The subject of another assay is E. coli ATCC 25922. Put plainly: MIC, broth macrodilution (CLSI), E. coli ATCC 25922. It is filed as cell-based. The essentials: as §2
The test system of another assay is S. aureus ATCC 29213. Put plainly: MIC, broth macrodilution (CLSI), S. aureus ATCC 29213. It is filed as cell-based, Staphylococcus aureus. The essentials:
as §2

Assay [7] deals with Acinetobacter baumanni (CAN-ICU 63169). Put plainly: MIC, broth macrodilution (CLSI), A. baumannii. It is filed as cell-based. The following applies: A. baumannii CAN-ICU 63169. The essentials: as §2
In assay [8] the test system is Stenotrophomonas maltophilia (CAN-ICU 62585). Put plainly: MIC, broth macrodilution (CLSI), S. maltophilia. The following applies: for Minimal Inhibitory Concentration (MIC): S. maltophilia, footnote CAN-ICU 62584. It is filed as cell-based. The gist of the method:
as §2

The test system of another assay is S. pneumoniae ATCC 13883. Put plainly: MIC, broth macrodilution (CLSI), S. pneumoniae ATCC 13883. It counts as cell-based. The gist of the method: as §2
The subject of assay [9] is Pseudomonas aeruginosa ATCC 27853. Put plainly: MIC, broth macrodilution (CLSI), P. aeruginosa ATCC 27853. It counts as cell-based. The essentials:
as §2

In assay [10] the test system is methicillin-resistant Staphylococcus aureus (MRSA) ATCC 33592. Kind of assay: MIC, broth macrodilution (CLSI), MRSA ATCC 33592. The following applies: for Minimal Inhibitory Concentration (MIC): MRSA, methicillin-resistant S. aureus ATCC 33592. It is filed as cell-based. The gist of the method: as §2
The subject of assay [11] is Streptococcus pneumoniae ATCC 49619. Put plainly: MIC, broth macrodilution (CLSI), S. pneumoniae ATCC 49619. It counts as cell-based. The gist of the method: as §2
A further assay deals with Gram-negative strains. Put plainly: Gram-negative antibacterial activity. It counts as cell-based. Particulars: Gram-negatives E. coli and S. maltophilia. The protocol: as §1
Assay [12] concerns P. aeruginosa (two strains). Put plainly: MIC, P. aeruginosa two strains. It counts as cell-based, Pseudomonas aeruginosa. As for the experimental part:
as §1

The subject of assay [13] is Gram-positive and Gram-negative strains tested. Put plainly: Antibacterial activity, strains tested. It counts as cell-based. As for the experimental part:
as §1

For the compound `NCC1OC(OC2C(N)CC(N)C(OC(=O)Nc3ccccc3)C2OC2OC(COC(=O)Nc3ccccc3)C(OC3OC(CN)C(OC(=O)Nc4ccccc4)C(OC(=O)Nc4ccccc4)C3N)C2OC(=O)Nc2ccccc2)C(N)C(OC(=O)Nc2ccccc2)C1OC(=O)Nc1ccccc1.O=C(O)C(F)(F)F.O=C(O)C(F)(F)F.O=C(O)C(F)(F)F.O=C(O)C(F)(F)F.O=C(O)C(F)(F)F.O=C(O)C(F)(F)F` (stereo not shown) [Compound 1], the MIC is ≤ 1 µg/mL in assay [1] and 16 to 32 µg/mL in the assay on three strains of E. coli (three strains of E. coli). For the same compound, the “MIC fold reduced compared to Neomycin B sulfate” value with three strains of E. coli (Neomycin B susceptible E. coli) was 2-8 fold. Besides, the “Minimal Inhibitory Concentration (MIC)” value was 0.5 µg/mL in assay [2]; 16 µg/mL in assay [3]; 0.5 µg/mL in [4]; 16 µg/mL in assay [5]; 128 µg/mL in assay [6]; 32 µg/mL in the assay on E. coli ATCC 25922. Besides, the “Minimal Inhibitory Concentration (MIC)” value in the assay on S. aureus ATCC 29213 was 1 µg/mL; in [7], 32 µg/mL; in assay [8] it was 4 µg/mL; in the assay on S. pneumoniae ATCC 13883, 256 µg/mL; in assay [9], 256 µg/mL; in [10], 1 µg/mL. The “Minimal Inhibitory Concentration (MIC)” value in [11] was determined as 16 µg/mL. The “MIC fold lower compared to amphiphilic di- and tetracationic lipopeptides (Serrano et al., 2009)” value in assay [8] (against S. maltophilia) was 32-64 fold. The “fold increased susceptibility over Neomycin B” value in [8] (against multidrug-resistant S. maltophilia) is “over 128 fold”. Moreover, the “fold enhancement compared to unmodified Neomycin B” value in assay [10] (against MRSA) is on record as 256 fold.
Consider `CCCCCCNC(=O)OCC1OC(OC2C(NC(=O)C(CCN)OC(=O)NCCCCCC)CC(N)C(OC3OC(CN)C(OC(=O)NCCCCCC)C(OC(=O)NCCCCCC)C3OC(=O)NCCCCCC)C2OC(=O)NCCCCCC)C(OC(=O)NCCCCCC)C(N)C1OC(=O)NCCCCCC.O=C(O)C(F)(F)F.O=C(O)C(F)(F)F.O=C(O)C(F)(F)F.O=C(O)C(F)(F)F` (stereo not shown) [Compound 9], for which the “Minimal Inhibitory Concentration (MIC)” value stood at 4 µg/mL in assay [2]; 4 µg/mL in assay [3]; 4 µg/mL in assay [4]; 8 µg/mL in assay [5]; 16 µg/mL in assay [6]; 4 µg/mL in the assay with E. coli ATCC 25922. Also, the “Minimal Inhibitory Concentration (MIC)” value is 4 µg/mL with S. aureus ATCC 29213; >128 µg/mL in [7]; 16 µg/mL in assay [8]; >128 µg/mL in the assay with S. pneumoniae ATCC 13883; 64 µg/mL in [9]; 4 µg/mL in assay [10]. For the same compound, in [11], the “Minimal Inhibitory Concentration (MIC)” value was 32 µg/mL. Further, the “fold improvement compared to 6” value in the assay with Gram-negative strains is given as 8-32 fold.
In the case of `NCC1OC(OC2C(N)CC(N)C(OCc3ccccc3)C2OC2OC(COCc3ccccc3)C(OC3OC(CN)C(OCc4ccccc4)C(OCc4ccccc4)C3N)C2OCc2ccccc2)C(N)C(OCc2ccccc2)C1OCc1ccccc1.O=C(O)C(F)(F)F.O=C(O)C(F)(F)F.O=C(O)C(F)(F)F.O=C(O)C(F)(F)F.O=C(O)C(F)(F)F.O=C(O)C(F)(F)F` (stereo not shown) [Compound 11], the MIC in [1] is 2 to 4 µg/mL; in [12], 32 to 64 µg/mL. In addition, the “Minimal Inhibitory Concentration (MIC)” value in [2] amounted to 2 µg/mL; in [3], 4 µg/mL; in assay [4], 2 µg/mL; in assay [5] it was 16 µg/mL; in assay [6] it was 64 µg/mL; with E. coli ATCC 25922, 8 µg/mL. Also, the “Minimal Inhibitory Concentration (MIC)” value was determined as 4 µg/mL in the assay with S. aureus ATCC 29213; 16 µg/mL in [7]; 8 µg/mL in [8]; 8 µg/mL with S. pneumoniae ATCC 13883; 32 µg/mL in [9]; 4 µg/mL in [10]. For the same compound, in assay [11], the “Minimal Inhibitory Concentration (MIC)” value stood at 16 µg/mL. In [8] (against S. maltophilia), the “fold decrease in activity compared to polycarbamate analog 1” value turned out to be 2 fold.
As for `COCC1OC(OC2C(OC)C(N)CC(N)C2OC2OC(CN)C(OC)C(OC)C2N)C(OC)C1OC1OC(CN)C(OC)C(OC)C1N.O=C(O)C(F)(F)F.O=C(O)C(F)(F)F.O=C(O)C(F)(F)F.O=C(O)C(F)(F)F.O=C(O)C(F)(F)F.O=C(O)C(F)(F)F` (stereo not shown) [Compound 14], the “Minimal Inhibitory Concentration (MIC)” value in assay [2] is 256 µg/mL; in assay [3], >256 µg/mL; in [4] it was >256 µg/mL; in [5] it was >256 µg/mL; in assay [6] it was >256 µg/mL; with E. coli ATCC 25922 it was >256 µg/mL. The “Minimal Inhibitory Concentration (MIC)” value (in the assay with S. aureus ATCC 29213; in assay [7]; in assay [8]; in the assay on S. pneumoniae ATCC 13883; in [9]; in assay [10]) was >256 µg/mL each time. Also, the “Minimal Inhibitory Concentration (MIC)” value in [11] was >256 µg/mL. Also, in assay [13], the “antibacterial activity (in words)” value is reported as “inactivity”.
Consider `COCC1OC(OC2C(N)CC(N)C(OC3OC(CN)C(OC)C(OC)C3OC)C2OC)C(OC)C(N)C1OC.O=C(O)C(F)(F)F.O=C(O)C(F)(F)F.O=C(O)C(F)(F)F.O=C(O)C(F)(F)F` (stereo not shown) [Compound 17], for which the “Minimal Inhibitory Concentration (MIC)” value in [2] is 256 µg/mL; in assay [3] it was >256 µg/mL; in [4], >256 µg/mL; in assay [5] it was >256 µg/mL; in [6], >256 µg/mL; in the assay with E. coli ATCC 25922, >256 µg/mL. Further, the “Minimal Inhibitory Concentration (MIC)” value (in the assay with S. aureus ATCC 29213; in assay [7]; in [8]; in the assay on S. pneumoniae ATCC 13883; in [9]; in assay [10]) was >256 µg/mL throughout. The “Minimal Inhibitory Concentration (MIC)” value in [11] is >256 µg/mL. Also, in assay [13], the “antibacterial activity (in words)” value is recorded as “inactivity”.
In the case of `COCC1OC(OC2C(NC(=O)C(CCN)OC)CC(N)C(OC3OC(CN)C(OC)C(OC)C3OC)C2OC)C(OC)C(N)C1OC.O=C(O)C(F)(F)F.O=C(O)C(F)(F)F.O=C(O)C(F)(F)F.O=C(O)C(F)(F)F` (stereo not shown) [Compound 20], the “Minimal Inhibitory Concentration (MIC)” value (in [2]; in assay [3]; in [4]; in [5]; in assay [6]; with E. coli ATCC 25922) was >256 µg/mL throughout. Moreover, the “Minimal Inhibitory Concentration (MIC)” value (in the assay with S. aureus ATCC 29213; in assay [7]; in assay [8]; in the assay with S. pneumoniae ATCC 13883; in assay [9]; in [10]) was >256 µg/mL in each case. Besides, the “Minimal Inhibitory Concentration (MIC)” value in assay [11] was >256 µg/mL. The “antibacterial activity (in words)” value in [13] is “inactivity”.
